Measured values published in patent US12258339B2, “Macrocyclic complexes of alpha-emitting radionuclides and their use in targeted radiotherapy of cancer” (Cornell University, priority 2018, dated 2025).

Assays:
[1] = Kinetic inertness of [^225Ac(macropa)]^+: challenge with 50-fold excess La^3+; type: physicochemical; conditions: 50-fold excess of La^3+, macropa 0.59 μM, RT, over 7 days
Protocol: General. Stock solutions of La(NO3)3 (0.001 M or 0.1 M) were prepared in H2O. To the radiolabeled samples containing macropa (10 μL of 10^−5 M stock; 1.0×10^−10 moles) or DOTA (10 μL of 10^−3 M stock; 1.0×10^−8 moles) and ^225Ac (10 μL, 26 kBq) in NH4OAc buffer (pH 6, 0.15 M, 150 μL), a 50-fold mole excess of La^3+ was added (5 μL, of 0.001 M or 0.1 M stock were added to solutions containing macropa and DOTA, respectively). The solutions were kept at room temperature and analyzed by iTLC at several time points over the course of 8 days. The iTLC plates were developed using citric acid (0.05 M, pH 5) as the eluent. Under these conditions, [^225Ac(macropa)]^+ and [^225Ac(DOTA)]^− remained at the baseline (RF=0) and any unchelated ^225Ac (^225Ac-citrate) migrated with the solvent front (RF=1). Percent of complex remaining intact was calculated by integrating area under the peaks on the radiochromatogram and dividing the counts associated with the ^225Ac-complex (RF=0) by the total counts integrated along the length of the iTLC plate.
(§1) The long half-life of ^225Ac necessitates its stable complex retention in vivo to avoid off-target damage to normal tissues arising from the release of free ^225Ac^3+. Furthermore, the stability of ^225Ac complexes against transmetalation and transchelation needs to be high. […]

[2] = Stability of [^225Ac(macropa)]^+ in human serum; type: in vitro ADME; conditions: radio-TLC
Protocol: […]. [^225Ac(macropa)]^+ and [^225Ac(DOTA)]^− were prepared using 10^−5 M and 10^−3 M stock solutions (10 μL) of macropa and DOTA, respectively, to give final ligand concentrations of 5.9×10^−7 M (macropa) and 5.9×10^−5 M (DOTA). After confirming a radiochemical yield of >90% by TLC using 0.4 M sodium citrate (pH 4) containing 10% MeOH as the mobile phase, 160 μL of human serum (an equal volume based on labeling reaction volume) were added to each radiolabeled solution. A control solution was also prepared in which water was substituted for ligand. The solutions were monitored over the course of 8 days by iTLC. The plates were developed with EDTA (50 mM, pH 5) as the eluent. Under these conditions, [^225Ac(macropa)]^+ and [^225Ac(DOTA)]^− complexes remained at the baseline (RF=0) and any ^225Ac (^225Ac-EDTA) that had been transchelated by serum migrated with the solvent front (RF=1). Percent of complex remaining intact was calculated.
as §1, with “high. To determine the kinetic inertness, [^225Ac(macropa)]^+ was challenged with La^3+ because of the established high affinity of macropa for this metal ion.” for “high.”

SMILES: O=C([O-])c1cccc(CN2CCOCCOCCN(Cc3cccc(C(=O)[O-])n3)CCOCCOCC2)n1.[225Ac+3] [[^225Ac(macropa)]^+]
- ^225Ac complex remained intact by radio-TLC [1]: 98%
- time ^225Ac^3+ remains complexed in human serum [2]: at least 8 days
